{"source": "patent US10647680B2", "about": "“Urea compound, preparation method therefor and medical use thereof” (Ancureall Pharmaceutical (Shanghai) Co., Ltd., priority 2016, dated 2020)", "type_in_all_cases": "in vitro ADME", "conditions_in_all_cases": "human liver microsomes", "key": {"CYP2D6": {"target": "T1, CYP2D6 (Homo sapiens, UniProt P10635)", "T1 construct": "human liver microsomes (BD Gentest) (0.5 mg/mL); tissue BD Gentest; host or cells: human liver microsomes", "T1 sequence (P10635 whole entry)": "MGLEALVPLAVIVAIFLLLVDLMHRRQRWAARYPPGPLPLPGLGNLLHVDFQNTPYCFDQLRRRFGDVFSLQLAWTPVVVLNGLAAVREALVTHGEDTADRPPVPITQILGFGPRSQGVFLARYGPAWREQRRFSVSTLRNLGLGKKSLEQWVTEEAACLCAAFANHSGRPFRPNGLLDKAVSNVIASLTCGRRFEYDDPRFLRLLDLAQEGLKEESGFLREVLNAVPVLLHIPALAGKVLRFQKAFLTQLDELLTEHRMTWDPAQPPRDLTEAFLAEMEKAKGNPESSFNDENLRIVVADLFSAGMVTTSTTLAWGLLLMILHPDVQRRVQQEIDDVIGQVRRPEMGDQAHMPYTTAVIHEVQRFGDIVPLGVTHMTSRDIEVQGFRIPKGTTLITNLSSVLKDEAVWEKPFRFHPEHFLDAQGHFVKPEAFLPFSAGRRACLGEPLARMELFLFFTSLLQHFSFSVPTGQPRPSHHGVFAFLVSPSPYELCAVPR", "assay": "P450 enzyme inhibition, CYP2D6", "method": "(§1) Eight cytochrome p450 enzyme inhibition reactions of human liver microsomes were performed using compound 77 of the present invention as a representative example.\n(§2) The main reaction systems and processes: in 37° C. water bath, the test compounds (7 concentrations, 0, 0.25, 0.5, 5, 10, 25, and 50 uM; the final methanol concentration was 1% in the system), human liver microsomes (BD Gentest) (0.5 mg/mL) and reducing coenzyme II (Roche 10621706001) (1 mg/mL) and the corresponding cytochrome p450 enzyme probe substrate were co-incubated for 5 to 20 minutes. Among them, (1) the probe substrate for CYP1A2 was Phenacetin ([…]) (Sigma), and the selective inhibitor alpha-naphthoflavone (2 uM) (Sigma) was for parallel detection as positive control, and they were incubated for 20 minutes. (2) The probe substrate for CYP2b6 was Bupropion (40 uM) (Sigma) and the selective inhibitor Ticlopidine (10 uM) (Sigma) was for parallel detection as positive control, and they were incubated for 20 minutes. (3) The probe substrate of CYP2C8 was Amodiaquine (1 uM) (Sigma), and the selective inhibitor Montelukast (10 uM) (Sigma) was for parallel detection as positive control, and they were incubated for 20 minutes. (4) The probe substrate for CYP2C9 was Diclofenac (2.5 uM) (Sigma), and the selective inhibitor Sulphaphenazole (10 uM) (Sigma) was for parallel detection as positive control, and they were incubated for 20 minutes. (5) The probe substrate for CYP2C19 was Mephenytoin (40 uM) (Sigma), and the selective inhibitor Ticlopidine (10 uM) (Sigma) was for parallel detection as positive control, and they were incubated for 20 minutes. (6) The probe substrate for CYP2D6 was Dextromethorphan (5 uM) (Sigma), and the selective inhibitor Quinidine (10 uM) (Sigma) was for parallel detection as positive control, and they were incubated for 20 minutes. (7) The probe substrates for CYP3A4-T and CYP3A4-M were Testosterone (5 uM) (Sigma) and Midazolam (5 uM) (Sigma), respectively, and the selective inhibitor was Ketoconazole (1 uM) (Sigma), they were detected in parallel as positive control, and incubated for 5 minutes. The reaction system was quenched by adding methanol containing the corresponding internal standard. The internal standard compound was Tolbutamide (Sigma). The concentration of the corresponding metabolites was determined by LC/MS/MS. For the data analysis, the decrease in peak area of the metabolite of the sample after addition of compound 77 relative to the peak area of the metabolite of the solvent control sample was used to calculate the IC50 (concentration of the test substance at 50% inhibition). The percentages of peak areas of metabolites of CYP1A2, CYP2B6, CYP2C8, CYP2C9, 15CYP2C19, CYP2D6, CYP3A4-T, and CYP3A4-M probe substrates after addition of different concentrations of compound 77 and selective inhibitors relative to the solvent control peak areas were shown in the Table 7."}, "CYP2B6": {"target": "T2, CYP2B6 (Homo sapiens, UniProt P20813)", "T2 construct": "human liver microsomes (BD Gentest) (0.5 mg/mL); tissue BD Gentest; host or cells: human liver microsomes", "T2 sequence (P20813 1-491)": "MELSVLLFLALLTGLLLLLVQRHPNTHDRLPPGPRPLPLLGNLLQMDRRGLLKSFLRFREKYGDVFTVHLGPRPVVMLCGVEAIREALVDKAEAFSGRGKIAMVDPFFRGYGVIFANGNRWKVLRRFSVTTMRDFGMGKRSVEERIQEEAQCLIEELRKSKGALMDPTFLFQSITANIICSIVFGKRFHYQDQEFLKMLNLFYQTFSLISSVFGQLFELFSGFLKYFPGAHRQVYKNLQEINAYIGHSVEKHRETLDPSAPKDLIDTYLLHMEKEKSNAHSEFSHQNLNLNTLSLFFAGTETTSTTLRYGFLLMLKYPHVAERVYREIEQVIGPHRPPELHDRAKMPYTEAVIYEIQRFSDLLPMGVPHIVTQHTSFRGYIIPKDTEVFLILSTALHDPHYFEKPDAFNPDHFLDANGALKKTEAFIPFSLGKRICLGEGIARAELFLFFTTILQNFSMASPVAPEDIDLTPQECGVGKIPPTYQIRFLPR", "assay": "P450 enzyme inhibition, CYP2B6", "method": "as §1, §2"}, "CYP1A2": {"target": "T3, CYP1A2 (Homo sapiens, UniProt P05177)", "T3 construct": "human liver microsomes (BD Gentest) (0.5 mg/mL); tissue BD Gentest; host or cells: human liver microsomes", "T3 sequence (P05177 1-516)": "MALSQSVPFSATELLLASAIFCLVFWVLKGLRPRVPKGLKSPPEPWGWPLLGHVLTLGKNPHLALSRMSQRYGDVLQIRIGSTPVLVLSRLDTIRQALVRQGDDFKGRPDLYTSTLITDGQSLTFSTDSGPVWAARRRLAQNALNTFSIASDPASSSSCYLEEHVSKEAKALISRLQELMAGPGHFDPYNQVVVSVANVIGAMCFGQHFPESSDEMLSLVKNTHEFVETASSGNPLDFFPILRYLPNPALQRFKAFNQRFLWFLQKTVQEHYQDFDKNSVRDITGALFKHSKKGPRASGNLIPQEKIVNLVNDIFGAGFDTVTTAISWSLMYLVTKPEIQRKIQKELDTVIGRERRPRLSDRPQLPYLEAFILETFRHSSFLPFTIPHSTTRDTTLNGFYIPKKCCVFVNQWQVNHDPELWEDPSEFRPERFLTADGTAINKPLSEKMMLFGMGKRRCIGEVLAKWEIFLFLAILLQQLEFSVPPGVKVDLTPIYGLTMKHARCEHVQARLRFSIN", "assay": "P450 enzyme inhibition, CYP1A2", "method": "as §1, §2"}}}
{"smiles": "COCCOc1ccc2c(c1)ncn2-c1ccc(NC(=O)Nc2cc(C(C)(C)C)n[nH]2)cc1", "note": "[Compound 77, 1-(5-tert-butyl-2H-pyrazol-3-yl)-3-{4-[5-(2-methoxyl-ethoxyl)-benzimidazol-1-yl]-phenyl}-urea]", "values": [{"measurement": "CYP2D6 Remaining %", "setting": "CYP2D6; Concentration 0.25 uM", "value": 105.1, "unit": "%"}, {"measurement": "CYP2D6 Remaining %", "setting": "CYP2D6; Concentration 0.5 uM", "value": 97.7, "unit": "%"}, {"measurement": "CYP2D6 Remaining %", "setting": "CYP2D6; Concentration 5 uM", "value": 98.8, "unit": "%"}, {"measurement": "CYP2D6 Remaining %", "setting": "CYP2D6; Concentration 10 uM", "value": 96.3, "unit": "%"}, {"measurement": "CYP2D6 Remaining %", "setting": "CYP2D6; Concentration 25 uM", "value": 90.3, "unit": "%"}, {"measurement": "CYP2D6 Remaining %", "setting": "CYP2D6; Concentration 50 uM", "value": 64.9, "unit": "%"}, {"measurement": "IC50", "setting": "CYP2D6; read-out: half-inhibitory concentration (IC50) of CYP2D6", "value": "> 50", "unit": "µM"}, {"measurement": "CYP2B6 Remaining %", "setting": "CYP2B6; Concentration 0.25 uM", "value": 106.1, "unit": "%"}, {"measurement": "CYP2B6 Remaining %", "setting": "CYP2B6; Concentration 0.5 uM", "value": 109.6, "unit": "%"}, {"measurement": "CYP2B6 Remaining %", "setting": "CYP2B6; Concentration 5 uM", "value": 100.4, "unit": "%"}, {"measurement": "CYP2B6 Remaining %", "setting": "CYP2B6; Concentration 10 uM", "value": 90.1, "unit": "%"}, {"measurement": "CYP2B6 Remaining %", "setting": "CYP2B6; Concentration 25 uM", "value": 64.6, "unit": "%"}, {"measurement": "CYP2B6 Remaining %", "setting": "CYP2B6; Concentration 50 uM", "value": 40.1, "unit": "%"}, {"measurement": "IC50", "setting": "CYP2B6; read-out: half-inhibitory concentration (IC50) of CYP2B6", "value": 39, "unit": "µM"}, {"measurement": "CYP1A2 Remaining %", "setting": "CYP1A2; Concentration 0.25 uM", "value": 95.7, "unit": "%"}, {"measurement": "CYP1A2 Remaining %", "setting": "CYP1A2; Concentration 0.5 uM", "value": 99.8, "unit": "%"}, {"measurement": "CYP1A2 Remaining %", "setting": "CYP1A2; Concentration 5 uM", "value": 94.1, "unit": "%"}, {"measurement": "CYP1A2 Remaining %", "setting": "CYP1A2; Concentration 10 uM", "value": 92.1, "unit": "%"}, {"measurement": "CYP1A2 Remaining %", "setting": "CYP1A2; Concentration 25 uM", "value": 80.9, "unit": "%"}, {"measurement": "CYP1A2 Remaining %", "setting": "CYP1A2; Concentration 50 uM", "value": 63.4, "unit": "%"}, {"measurement": "IC50", "setting": "CYP1A2; read-out: half-inhibitory concentration (IC50) of CYP1A2", "value": "> 50", "unit": "µM"}]}
